The values below come from patent US12102672B2, “Immunogenic sequences from a phage tail length tape measure protein, bacteria expressing the same and their use in treating a cancer” (INSTITUT GUSTAVE ROUSSY, priority 2017, dated 2024).

For test [1], the system named is MCA205 cells with PSMB4 GSFARFRNI knock-in. Nature of the test: Growth of Psmb4 knock-in MCA205 tumors under CTX +/- E. hirae 13144. In kind it is in vivo, mice. Particulars: L→F exchange in position 3, versus WT MCA205.
In a further test the test system is splenic CD8+ T cells. Kind of test: IFNγ ELISpot recall assay of splenic CD8+ T cells with DCs pulsed with heat-inactivated bacteria or peptides. The format is cell-based, mice. The conditions noted are these: for recall responses to TMP1, TMP2 and Group7 after in vivo immunization with the strain: Example 3, FIG. 13E. Here is the method: FIG. 9. Experimental immunization protocols to elucidate the immunogenicity of EH peptides. […] 5 days after the first oral gavage, mice are treated with CTX. One week post-CTX, CD8+ T cells are isolated from spleen. These CD8+ T cells are incubated with dendritic cells (DCs) pulsed with 20 μg/ml of peptides (during 1 hour) or with heat-inactivated bacteria (during 6 hours). Inactivation of bacteria consists in incubation at 65° C. during 2 hours. After 24 hours of culture, ELIspot of IFNγ is performed.
FIG. 10. Cross-reactivity between the two E. hirae 708 and 13144 species for CTL splenic reactivity. Number of IFNγ spot representing IFNγ-secreting CD8+ T cells after co-culture with DCs pre-incubated with or without heat-inactivated bacteria (708, 13144, EH17 and L. plantarum).
FIG. 13. Peptides from group 7 containing the TMP1 and TMP2 epitopes activate CD8+ T cells from spleen of mice immunized against E. hirae 13144. Number of IFNγ spot, representing IFNγ-secreting CD8+ T cells, after incubation with DCs pulsed with 13 different group of peptide (Table 6). Just group n° 1 (A) and group n° 7 (B) are shown. (C, E) Number of IFNγ spot, representing IFNγ-secreting CD8+ T cells, after incubation with DCs pulsed with 4 peptides belong to group n° 7 (in table 7). (D) Sequence alignment of TMP1 and TMP2 of EH10815 (SEQ ID Nos: 228 and 229 respectively) compared to EH13144 (fragments of SEQ ID NO: 1) at the level of immunogenic peptides. Amino acid sequence […] corresponds to SEQ ID No: 13. Amino acid sequence […] corresponds to SEQ ID No: 217. Amino acid sequence […] corresponds to SEQ ID Nos: 14. Amino acid sequence AlIEFIKGL corresponds to SEQ ID No: 218. (E) In vitro reactivity of splenic CTL in a recall response to TMP1 and TMP2 as well as Group7 after in vivo immunization with other strains of EH.
(§1) A and C. Experimental setting. […] D-E. Ex vivo recall assays. […] Each dot represents one mouse.

For test [2], the system named is MCA-205 sarcoma. Kind of test: MCA205 sarcoma growth in antibiotic-treated SPF C57BL/6 mice, CTX plus oral gavage with bacteria. In kind it is in vivo. The conditions noted are these: ATB 3 days, CTX 100 mg/kg x3, weekly oral gavages, FIG. 27B. On the procedure:
as §1
A-B. Prophylactic vaccinations. […] C-D. Therapeutic settings.
Mice were treated during 3 days with an antibiotic solution (ATB) containing ampicillin (1 mg/ml), streptomycin (5 mg/ml), colistin (1 mg/ml) (Sigma-Aldrich) and vancomycin (0.25 mg/ml) added in the sterile drinking water of mice. Antibiotic activity was confirmed by cultivating fecal pellets resuspended in BHI+15% glycerol at 0.1 g/ml on COS (BD Columbia Agar with 5% Sheep Blood) plates for 48 h at 37° C. in aerobic and anaerobic conditions. In the context of bacterial transplantation experiments, mice received 3 days of ATB before undergoing bacterial transplantation the next day by oral gavage using animal feeding needles.
Syngeneic C57BL/6 mice were implanted with 0.8×10^6 MCA-205 WT sarcoma cells subcutaneously and treated intraperitoneally (i.p.) when tumors reached 20 to 35 mm^2 in size with CTX (100 mg/kg). Depending on the experimental setting, mice were injected once or 3 times at 1-week interval. Tumor size was routinely monitored every 3 days by means of a caliper.
Enterococcus hirae 13144 were originally isolated from spleens of SPF mice treated with CTX in our laboratory.

The test system of test [3] is MCA-205 sarcoma. Kind of test: MCA-205 sarcoma growth in FMT-treated mice, CTX plus oral gavage with E. hirae strains. The format is in vivo. The conditions noted are these: for boost of CTX tumoricidal activity (MCA-205 tumor growth): dysbiotic FMT from BC patient, 3 cycles CTX 100 mg/kg, oral gavage 1.10^9 bacteria; for Anti-tumor effect: summary of the characteristics of the strains, with CTX, MCA205 sarcoma; for antitumor effect together with CTX (summary statements): MCA205 tumor model together with CTX. On the procedure:
FIG. 1. Experimental setting. (A) Mice are treated with broad spectrum antibiotics (streptomycin, colistin, ampicillin and vancomycine) for 3 days before performing Fecal Microbiota Transplantation (FMT). 14 days post-FMT, MCA-205 sarcoma cell lines are inoculated in the right flank of mice (8.10^5 cells per mice). […] (B) Non FMT-treated SPF mice are used as control.
FIG. 2. Dysbiosis by FMT BC patient 1: Effectiveness of E. hirae 13144 to restore CTX-mediated antitumor effects. […] (C) Tumor growth curves of MCA-205 sarcoma in FMT-treated mice after oral gavage with strain E. hirae 13144 or NaCl as control. 2 independent experiments are depicted. (D) Overall survival of FMT-treated, MCA-205 sarcoma bearing mice treated with CTX or NaCl after oral gavage with strain E. hirae 13144. A typical survival curve is depicted for six mice per group. (E) Concatenated data of tumor sizes at day 21 post-CTX from 2 independent experiments are shown.
FIG. 3. […] (C) Tumor growth curves of MCA-205 sarcoma in FMT-treated mice after oral gavage with strain E. hirae 13144 or NaCl as control. 2 independent experiments are depicted. (D) Concatenated data of tumor sizes at day 21 post-CTX from 2 independent experiments are shown.
FIG. 4. […] Tumor growth curves of MCA-205 sarcoma in FMT-treated mice after oral gavage with strain E. hirae 13144 (A), IGR1 (B) or NaCl as control. A typical curve is depicted for six mice per group. (C) Concatenated data of tumor sizes at day 17 post-CTX from 1-2 independent experiments are shown. (D). Comparaison of various strains of E. hirae for their capacity to control tumor growth. […] EH10815 fails to work and that may be related to a mutation residing in TMP2 (see below FIG. 13B).
FIG. 5. […] (A) Tumor surface of MCA-205 sarcoma in FMT-treated mice after oral gavage with strain E. hirae 13144, IGR4, IGR7, Actinomycetes spp (Ao) and injected with 3 cycles of CTX (C) vs NaCl (N). Each dot is one mouse/tumor. (B) Tumor growth curves of MCA-205 sarcoma in SPF mice of the best group, means+SEM of tumor sizes at each time point and tumor sizes at sacrifice (C: CTX). Each dot is one mouse/tumor. Anova statistics indicating significant differences between CTX and the triple combination. (C) Tumor surface of MCA-205 sarcoma in FMT-treated mice after oral gavage with strains EH13144, IGR1, IGR11, Barnesiella or Akkermansia and injected with 3 cycles of CTX. Bacterial strains are used alive (V) or pasteurized (P). For pasteurization, bacteria are incubated 30 min at 70° C. and frozen at −80° C. at least 6 hours.
FIG. 6. […] Tumor growth curves of MCA-205 sarcoma in FMT-treated mice after oral gavage with strain E. hirae 13144 alive (A), pasteurized (B) or NaCl as control. A typical curve is depicted for six mice per group. (C) Concatenated data of tumor sizes at day 17 post-CTX from 3 independent experiments are shown.

The next test concerns BM-DC. Nature of the test: IL-1B and IL-12 production by BM-DC. In kind it is cell-based. The conditions noted are these: data not shown.
The test system of another test is pTh17 cells. Kind of test: Induction of pTh17 cells in secondary lymphoid organs of CTX-treated animals. The format is in vivo. The source says: The reasons for these differences were however unknown, and the inventors pursued their research to identify the factor(s) responsible for the immunogenic properties of the murine strain EH13144 and the human clones IGR4, IGR7 and IGR11, in order to derive new molecules or microorganisms useful in the treatment of cancer.

Test [4] deals with TMP1-specific CD8+ T cells. Particulars: FIG. 27H.
For test [5], the system named is CD8+ T cells from HLA-A02*01 healthy volunteers. Nature of the test: IFNγ ELISpot of CD8+ T cells from HLA-A2 healthy volunteers stimulated with TMP epitopes. The format is cell-based, human. Particulars: Example 7, FIG. 24B.

Entries after “also recorded” stand apart in the source; their conditions may differ. Where no end group is shown, it is not given here.

As to `O=P1(N(CCCl)CCCl)NCCCO1` (stereo not shown) [CTX, cyclophosphamide, reference compound], the “anticancer effect on PSMB4 knock-in (GSFARFRNI) MCA205 tumors” value in test [1] is listed as “not interfering”.
For AMIEFIQGL, the “recognition of peptides by memory EH13144-induced Tc1 cells (IFNγ ELISpot)” value in the test with splenic CD8+ T cells (Example 3, FIG. 13/32, DCs pulsed with 20 μg/ml peptides) is given as “highly recognized”.
As to “Enterococcus hirae ATCC9790 [10815 (ATCC9790), reference compound]”, the “recall responses to TMP1, TMP2 and Group7 after in vivo immunization with the strain” value in the test with splenic CD8+ T cells was “does not induce recall responses”. Also, the “TC1 response against TMP1 in mice gavaged with the strain (IFNγ ELISpot)” value in the test with splenic CD8+ T cells (Example 12, FIG. 27E) was “unable to do so”. Besides, the “restoration of antibiotic-perturbed anticancer effects of CTX (MCA205 growth)” value (shortened to “restoration”) with MCA-205 sarcoma [2] is listed as “reduced anticancer effect”. Moreover, in the test on MCA-205 sarcoma [3], the “boost of CTX tumoricidal activity (MCA-205 tumor growth)” value (from here on “boost of CTX tumoricidal activity”) is given as “failed to efficiently boost CTX tumoricidal activity” and the Anti-tumor effect result is listed as “No”. In the test with MCA-205 sarcoma [3] (listed as EH10815), the “boost of CTX tumoricidal activity” value is reported as “did not mediate antitumor effects; also recorded: fails to work”.
As to Enterococcus hirae IGR1 [IGR 1], the “IL-1B and IL-12 production by BM-DC” value in the test on BM-DC is listed as “as effective as EH13144”. In the test with MCA-205 sarcoma [3], the “boost of CTX tumoricidal activity” value is recorded as “not immunogenic; also recorded: failed to efficiently boost CTX tumoricidal activity” and the Anti-tumor effect entry was “No”.
As for Enterococcus hirae IGR10 [IGR 10], in the test on MCA-205 sarcoma [3], the “boost of CTX tumoricidal activity” value is “failed to efficiently boost CTX tumoricidal activity” and the Anti-tumor effect result is given as “No”.
Regarding Enterococcus hirae strain IGR4 [IGR 4], in the test on MCA-205 sarcoma [3], the “antitumor effect together with CTX (summary statements)” value (“antitumor effect together with CTX” below) is on record as “effective at synergizing with CTX”, the “boost of CTX tumoricidal activity” value is on record as “also immunogenic” and the Anti-tumor effect entry is on record as “Yes”. In addition, the “boost of CTX tumoricidal activity” value in the test with MCA-205 sarcoma [3] (listed as EH IGR 4) is on record as “efficacy comparable to EH 13144”.
Consider Enterococcus hirae strain IGR7 [IGR 7], for which, in the test with splenic CD8+ T cells, the “recall responses to TMP1, TMP2 and Group7 after in vivo immunization with the strain” value is on record as “induce recall responses”. The “restoration” value with MCA-205 sarcoma [2] is “efficient”; in the test on MCA-205 sarcoma [2] (listed as E. hirae IGR7), “as efficient as E. hirae 13144”. The “capacity to induce pTh17 cells in secondary lymphoid organs” value in the test with pTh17 cells is listed as “significant capacity to induce pTh17 cells”. Moreover, the “proportion of splenic TMP1-specific CTLs after immunization with the strain (tetramer)” value in test [4] was “high proportion”. In addition, the “antitumor effect together with CTX” value in the test with MCA-205 sarcoma [3] is recorded as “proved immunogenic”; in the test with MCA-205 sarcoma [3] (listed as clone IGR7) it was “effective at synergizing with CTX”. Moreover, the “boost of CTX tumoricidal activity” value with MCA-205 sarcoma [3] is given as “also immunogenic”; in the test with MCA-205 sarcoma [3] (listed as EH IGR 7), “efficacy comparable to EH 13144”. Also, the Anti-tumor effect entry in the test on MCA-205 sarcoma [3] was “Yes”.
For the compound “Enterococcus hirae strain IGR11 [IGR 11]”, the “restoration” value with MCA-205 sarcoma [2] is “efficient”. Moreover, the “restoration” value with MCA-205 sarcoma [2] (listed as E. hirae IGR11) is recorded as “as efficient as E. hirae 13144”. Further, the “proportion of splenic TMP1-specific CTLs after immunization with the strain (tetramer)” value in test [4] is listed as “high proportion”. Further, the “IL-1B and IL-12 production by BM-DC” value with BM-DC is “as effective as EH13144”. In addition, in the test on MCA-205 sarcoma [3], the “antitumor effect together with CTX” value is given as “efficient to mediate some tumoricidal activity”, the “boost of CTX tumoricidal activity” value is given as “not immunogenic” and the Anti-tumor effect result was “Yes”. For the same compound, the “antitumor effect together with CTX” value in the test with MCA-205 sarcoma [3] (listed as clone IGR11) is listed as “to some extent”.
Consider ILVAITTTI, for which the “immunogenicity in humans of HLA-A0201-restricted epitopes” value (from here on “immunogenicity in humans”) in test [5] is “immunogenicity of which has been experimentally confirmed”.
Turning to KLAKFASVV, in test [5], the “immunogenicity in humans” value is given as “immunogenicity of which has been experimentally confirmed”.
Consider KMVEILEEI, for which, in test [5], the “immunogenicity in humans” value is “immunogenicity of which has been experimentally confirmed”.
As for LLGIYQSYV, the “immunogenicity in humans” value in test [5] was “immunogenicity of which has been experimentally confirmed”.
With RLLKYDVGV, the “immunogenicity in humans” value in test [5] was “immunogenicity of which has been experimentally confirmed”.
